From ChEMBL document CHEMBL1201862, “PubChem BioAssay data set” (2004)
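Dose response: 5 concentrations. Exposure: 48 h. Format: 96-well plates. Endpoint: linear interpolation; highest concentration if not reached. GI50 is the concentration that inhibits growth by half.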 Calls of active or inactive are those of the source. No stated cut-off is given here; in the data, active = GI50 up to about 1.1 µM and inactive = higher.

Columns and labels:
Assay in all cases: NCI tumour cell line growth inhibition, 48 h
SR = system: SR
K562 = system: K562
NCI-H226 = system: NCI-H226
M14 = system: M14
BT-549 = system: BT-549
MDA-N = system: MDA-N
SK-MEL-5 = system: SK-MEL-5
UO-31 = system: UO-31
IGROV-1 = system: IGROV-1
COLO 205 = system: COLO 205
RXF 393 = system: RXF 393
SW-620 = system: SW-620
SK-OV-3 = system: SK-OV-3
A549 = system: A549
OVCAR-3 = system: OVCAR-3
CAKI-1 = system: CAKI-1
SN12C = system: SN12C
CCRF-CEM = system: CCRF-CEM
KM12 = system: KM12
UACC-257 = system: UACC-257

| SMILES | GI50 (SR) | GI50 (K562) | GI50 (NCI-H226) | GI50 (M14) | GI50 (BT-549) | GI50 (MDA-N) | GI50 (SK-MEL-5) | GI50 (UO-31) | GI50 (IGROV-1) | GI50 (COLO 205) | GI50 (RXF 393) | GI50 (SW-620) | GI50 (SK-OV-3) | GI50 (A549) | GI50 (OVCAR-3) | GI50 (CAKI-1) | GI50 (SN12C) | GI50 (CCRF-CEM) | GI50 (KM12) | GI50 (UACC-257) |
| --- | --- | --- | --- | --- | --- | --- | --- | --- | --- | --- | --- | --- | --- | --- | --- | --- | --- | --- | --- | --- |
| COc1cccc2c1C(=O)c1c(O)c3c(c(O)c1C2=O)C[C@@](O)(C(C)=O)C[C@@H]3OC1CC(O)C(O)C(C)O1 (stereo not given in full) | 0.00935 µM (active) | 0.925 µM (active) | 0.289 µM (active) | 4.8 µM (inactive) | 3.33 µM (inactive) | 8.71 µM (inactive) | 0.875 µM (active) | 1.66 µM (inactive) | 3.05 µM (inactive) | 2.05 µM (inactive) | 1.17 µM (inactive) | 0.536 µM (active) | 4.51 µM (inactive) | 0.465 µM (active) | 3.69 µM (inactive) | 0.789 µM (active) | 0.675 µM (active) | 0.0902 µM (active) | 1.55 µM (inactive) | 3.79 µM (inactive) |
| CC(=O)O[C@H]1CC[C@@]2(C)C(=CC[C@@H]3[C@@H]2CC[C@]2(C)C(=O)/C(=C\c4ccccc4)C[C@@H]32)C1 | > 100 µM (inactive) | 54.7 µM (inactive) | > 100 µM (inactive) | > 100 µM (inactive) | > 100 µM (inactive) | > 100 µM (inactive) | 39.4 µM (inactive) | > 100 µM (inactive) | > 100 µM (inactive) | > 100 µM (inactive) | 40.5 µM (inactive) | > 100 µM (inactive) | > 100 µM (inactive) | > 100 µM (inactive) | 61.9 µM (inactive) | > 100 µM (inactive) | > 100 µM (inactive) | > 100 µM (inactive) | > 100 µM (inactive) | > 100 µM (inactive) |
| NCc1ccc(O)c(O)c1 | 38.5 µM (inactive) | > 100 µM (inactive) | > 100 µM (inactive) | > 100 µM (inactive) | > 100 µM (inactive) | > 100 µM (inactive) | > 100 µM (inactive) | > 100 µM (inactive) | 60.1 µM (inactive) | > 100 µM (inactive) | > 100 µM (inactive) | > 100 µM (inactive) | > 100 µM (inactive) | > 100 µM (inactive) | 55.8 µM (inactive) | > 100 µM (inactive) | > 100 µM (inactive) | 53 µM (inactive) | > 100 µM (inactive) | > 100 µM (inactive) |
| CN1CCN(CN2C(=O)C3C4C=CC(C3C2=O)C2C(=O)N(CN3CCN(C)CC3)C(=O)C42)CC1 (stereo not given) | 32.4 µM (inactive) | 45.7 µM (inactive) | > 87.1 µM (inactive) | > 51.3 µM (inactive) | 52.2 µM (inactive) | > 57.3 µM (inactive) | 5.55 µM (inactive) | > 87.3 µM (inactive) | 50.6 µM (inactive) | 54.6 µM (inactive) | 27 µM (inactive) | 4.97 µM (inactive) | > 100 µM (inactive) | > 10 µM (inactive) | > 59.6 µM (inactive) | 38.1 µM (inactive) | > 58.9 µM (inactive) | 28.6 µM (inactive) | 56.5 µM (inactive) | > 75.2 µM (inactive) |
| COc1cccc(Nc2nc(N)nc(N)c2N)c1 | 24 µM (inactive) | 37.2 µM (inactive) | > 100 µM (inactive) | > 100 µM (inactive) | 35.7 µM (inactive) | 19.5 µM (inactive) | 30.3 µM (inactive) | > 100 µM (inactive) | 35.1 µM (inactive) | 34.4 µM (inactive) | > 100 µM (inactive) | 31.8 µM (inactive) | > 100 µM (inactive) | > 100 µM (inactive) | 42.8 µM (inactive) | 11.8 µM (inactive) | 20.1 µM (inactive) | 18.5 µM (inactive) | > 100 µM (inactive) | > 100 µM (inactive) |
| O=C(Cn1c2ccc(Br)cc2c2nc3ccccc3nc21)NCc1ccccc1 | 39.4 µM (inactive) | > 100 µM (inactive) | 78.7 µM (inactive) | 89.9 µM (inactive) | 39.9 µM (inactive) | > 100 µM (inactive) | > 100 µM (inactive) | > 100 µM (inactive) | 67 µM (inactive) | > 100 µM (inactive) | 12 µM (inactive) | > 100 µM (inactive) | 44.3 µM (inactive) | > 100 µM (inactive) | > 100 µM (inactive) | 26.8 µM (inactive) | > 100 µM (inactive) | > 100 µM (inactive) | > 100 µM (inactive) | > 100 µM (inactive) |
| Clc1nc2c(N3CCCC3)nc(N3CCNCC3)nc2[nH]1 | 16.9 µM (inactive) | 23.1 µM (inactive) | > 100 µM (inactive) | 19.7 µM (inactive) | 29.4 µM (inactive) | 17.6 µM (inactive) | 15.1 µM (inactive) | 15.7 µM (inactive) | 17.9 µM (inactive) | 16.4 µM (inactive) | 14.1 µM (inactive) | 21.2 µM (inactive) | 18.2 µM (inactive) | 17.9 µM (inactive) | 18 µM (inactive) | 39 µM (inactive) | 18.6 µM (inactive) | 19.4 µM (inactive) | 18.1 µM (inactive) | 19.3 µM (inactive) |
| CC(C)=CCC[C@@H](C)C1=C(O)C(=O)C(C)=C(N[C@H](C)c2ccccc2)C1=O | 22.3 µM (inactive) | 6.64 µM (inactive) | 4.27 µM (inactive) | 5.41 µM (inactive) | 7.16 µM (inactive) | 7.23 µM (inactive) | 3.08 µM (inactive) | 4.27 µM (inactive) | 3.8 µM (inactive) | 4.33 µM (inactive) | 6.71 µM (inactive) | 5.92 µM (inactive) | 3.84 µM (inactive) | 3.28 µM (inactive) | 5.36 µM (inactive) | 4.11 µM (inactive) | 6.55 µM (inactive) | 0.923 µM (active) | 6.3 µM (inactive) | 8.36 µM (inactive) |
